Reference: ChEMBL document CHEMBL4507272 (2021)

Legend:
Histamine H3 receptor = Histamine H3 receptor (Homo sapiens, UniProt Q9Y5N1); experiment: GPCRScan assay: inhibition of H3; set-up: radioligand conc. used [nm] 0.5 – 1.0, parental cells HEK Flp-In
[1] = test system: Tyrosine-protein kinase ABL1 (Homo sapiens), P00519 [Q252H]; conditions: Compound concentration 1000.0 nM
[2] = target: Activin receptor type-2A (Homo sapiens) (UniProt P27037); conditions: Compound concentration 1000.0 nM
[3] = target: Mitogen-activated protein kinase kinase kinase 5 (Homo sapiens) (UniProt Q99683); conditions: Compound concentration 1000.0 nM
[4] = target: Aurora kinase C (Homo sapiens) (UniProt Q9UQB9); conditions: Compound concentration 1000.0 nM
[5] = target: Calcium/calmodulin-dependent protein kinase type 1B (Homo sapiens) (UniProt Q6P2M8); conditions: Compound concentration 1000.0 nM
[6] = target: Calcium/calmodulin-dependent protein kinase kinase 1 (Homo sapiens) (UniProt Q8N5S9); conditions: Compound concentration 1000.0 nM
[7] = target: Cyclin-dependent kinase 13 (Homo sapiens) (UniProt Q14004); conditions: Compound concentration 1000.0 nM
[8] = target: Cyclin-dependent kinase 4 (Homo sapiens) (UniProt P11802); conditions: Compound concentration 1000.0 nM
[9] = target: Cyclin-dependent kinase-like 1 (Homo sapiens) (UniProt Q00532); conditions: Compound concentration 1000.0 nM
[10] = target: Dual specificity protein kinase CLK3 (Homo sapiens) (UniProt P49761); conditions: Compound concentration 1000.0 nM
[11] = target: Epithelial discoidin domain-containing receptor 1 (Homo sapiens) (UniProt Q08345); conditions: Compound concentration 1000.0 nM
[12] = test system: Epidermal growth factor receptor (Homo sapiens), P00533 [G719S]; conditions: Compound concentration 1000.0 nM
[13] = test system: Epidermal growth factor receptor (Homo sapiens), P00533 [T790M]; conditions: Compound concentration 1000.0 nM
[14] = target: Ephrin type-B receptor 4 (Homo sapiens) (UniProt P54760); conditions: Compound concentration 1000.0 nM
[15] = target: Tyrosine-protein kinase Fyn (Homo sapiens) (UniProt P06241); conditions: Compound concentration 1000.0 nM
[16] = target: Mitogen-activated protein kinase kinase kinase kinase 1 (Homo sapiens) (UniProt Q92918); conditions: Compound concentration 1000.0 nM
[17] = target: Mast/stem cell growth factor receptor Kit (Homo sapiens) (UniProt P10721); conditions: Compound concentration 1000.0 nM
[18] = target: Mitogen-activated protein kinase kinase kinase kinase 3 (Homo sapiens) (UniProt Q8IVH8); conditions: Compound concentration 1000.0 nM
[19] = target: MAP kinase-activated protein kinase 5 (Homo sapiens) (UniProt Q8IW41); conditions: Compound concentration 1000.0 nM
[20] = target: MAP/microtubule affinity-regulating kinase 3 (Homo sapiens) (UniProt P27448); conditions: Compound concentration 1000.0 nM
[21] = target: Misshapen-like kinase 1 (Homo sapiens) (UniProt Q8N4C8); conditions: Compound concentration 1000.0 nM
[22] = target: Serine/threonine-protein kinase 3 (Homo sapiens) (UniProt Q13188); conditions: Compound concentration 1000.0 nM
[23] = target: Mitogen-activated protein kinase 11 (Homo sapiens) (UniProt Q15759); conditions: Compound concentration 1000.0 nM
[24] = target: Phosphatidylinositol 4-phosphate 3-kinase C2 domain-containing subunit beta (Homo sapiens) (UniProt O00750); conditions: Compound concentration 1000.0 nM
[25] = target: Phosphatidylinositol 3-kinase C2 domain-containing subunit gamma (Homo sapiens) (UniProt O75747); conditions: Compound concentration 1000.0 nM
[26] = target: Phosphatidylinositol 5-phosphate 4-kinase type-2 beta (Homo sapiens) (UniProt P78356); conditions: Compound concentration 1000.0 nM
[27] = target: cAMP-dependent protein kinase catalytic subunit alpha (Homo sapiens) (UniProt P17612); conditions: Compound concentration 1000.0 nM
[28] = target: Serine/threonine-protein kinase PknB (Mycobacterium tuberculosis) (UniProt P9WI81); conditions: Compound concentration 1000.0 nM
[29] = target: Protein-tyrosine kinase 2-beta (Homo sapiens) (UniProt Q14289); conditions: Compound concentration 1000.0 nM
[30] = target: Serine/threonine-protein kinase RIO2 (Homo sapiens) (UniProt Q9BVS4); conditions: Compound concentration 1000.0 nM
[31] = target: Proto-oncogene tyrosine-protein kinase ROS (Homo sapiens) (UniProt P08922); conditions: Compound concentration 1000.0 nM
[32] = target: Ribosomal protein S6 kinase alpha-3 (Homo sapiens) (UniProt P51812); conditions: Compound concentration 1000.0 nM
[33] = target: Ribosomal protein S6 kinase alpha-3 (Homo sapiens) (UniProt P51812); conditions: Compound concentration 1000.0 nM; remark: listed apart in the source
[34] = target: Ribosomal protein S6 kinase alpha-2 (Homo sapiens) (UniProt Q15349); conditions: Compound concentration 1000.0 nM
[35] = target: SNF-related serine/threonine-protein kinase (Homo sapiens) (UniProt Q9NRH2); conditions: Compound concentration 1000.0 nM
[36] = target: Tyrosine-protein kinase SYK (Homo sapiens) (UniProt P43405); conditions: Compound concentration 1000.0 nM
[37] = target: Serine/threonine-protein kinase TAO2 (Homo sapiens) (UniProt Q9UL54); conditions: Compound concentration 1000.0 nM
[38] = target: Testis-specific serine/threonine-protein kinase 1 (Homo sapiens) (UniProt Q9BXA7); conditions: Compound concentration 1000.0 nM
[39] = target: Tyrosine-protein kinase TXK (Homo sapiens) (UniProt P42681); conditions: Compound concentration 1000.0 nM
[40] = target: Sodium-dependent dopamine transporter (Homo sapiens) (UniProt Q01959); conditions: Compound concentration 10.0 uM
[41] = target: Histamine H4 receptor (Homo sapiens) (UniProt Q9H3N8); conditions: Compound concentration 10.0 uM
[42] = target: GABA-A receptor; anion channel (Rattus norvegicus) (UniProt O09028+P15431+P18506+P18508+P19969+P20236+P23574+P23576+P28471+P28473+P30191+P62813+P63079+P63138+Q91ZM7+Q9ES14); conditions: Compound concentration 10.0 uM
[43] = target: Sigma intracellular receptor 2 (Homo sapiens) (UniProt Q5BJF2); conditions: Compound concentration 10.0 uM

Chain of Ribosomal protein S6 kinase alpha-3 (Homo sapiens) (P51812 whole entry): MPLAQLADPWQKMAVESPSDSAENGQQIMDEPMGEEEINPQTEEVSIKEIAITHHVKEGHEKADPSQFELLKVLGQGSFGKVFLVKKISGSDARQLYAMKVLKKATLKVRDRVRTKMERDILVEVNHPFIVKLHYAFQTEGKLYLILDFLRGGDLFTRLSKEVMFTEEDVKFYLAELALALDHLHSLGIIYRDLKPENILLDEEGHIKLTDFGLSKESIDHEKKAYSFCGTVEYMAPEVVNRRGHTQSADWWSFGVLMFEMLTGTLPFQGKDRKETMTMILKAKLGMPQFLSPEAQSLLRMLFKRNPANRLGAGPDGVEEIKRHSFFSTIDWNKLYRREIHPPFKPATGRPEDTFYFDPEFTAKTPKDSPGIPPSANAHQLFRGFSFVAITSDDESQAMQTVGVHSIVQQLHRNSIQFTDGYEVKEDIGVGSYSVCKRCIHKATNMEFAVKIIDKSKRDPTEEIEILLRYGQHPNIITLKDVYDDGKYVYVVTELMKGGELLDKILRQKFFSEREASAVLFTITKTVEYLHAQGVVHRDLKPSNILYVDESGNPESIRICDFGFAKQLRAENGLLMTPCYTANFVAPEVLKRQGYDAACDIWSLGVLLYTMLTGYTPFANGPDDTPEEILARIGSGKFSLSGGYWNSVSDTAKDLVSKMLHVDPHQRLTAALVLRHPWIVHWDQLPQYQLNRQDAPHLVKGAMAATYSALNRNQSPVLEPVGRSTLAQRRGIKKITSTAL
Chain of Histamine H3 receptor (Q9Y5N1 whole entry): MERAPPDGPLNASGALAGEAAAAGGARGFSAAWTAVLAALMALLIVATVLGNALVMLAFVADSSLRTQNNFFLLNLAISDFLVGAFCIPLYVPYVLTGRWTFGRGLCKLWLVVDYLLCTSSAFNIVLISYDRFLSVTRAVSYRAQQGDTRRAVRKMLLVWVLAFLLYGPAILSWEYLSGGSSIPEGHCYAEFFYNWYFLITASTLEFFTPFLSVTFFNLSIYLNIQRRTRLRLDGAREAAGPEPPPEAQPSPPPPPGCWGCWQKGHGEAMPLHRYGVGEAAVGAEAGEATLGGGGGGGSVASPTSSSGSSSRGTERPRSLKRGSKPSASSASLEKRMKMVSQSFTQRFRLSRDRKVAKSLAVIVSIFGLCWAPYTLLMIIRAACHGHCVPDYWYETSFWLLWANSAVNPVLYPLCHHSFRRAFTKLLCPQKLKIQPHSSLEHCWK
Chain of Mitogen-activated protein kinase 11 (Homo sapiens) (Q15759 whole entry, the tested form may be a part): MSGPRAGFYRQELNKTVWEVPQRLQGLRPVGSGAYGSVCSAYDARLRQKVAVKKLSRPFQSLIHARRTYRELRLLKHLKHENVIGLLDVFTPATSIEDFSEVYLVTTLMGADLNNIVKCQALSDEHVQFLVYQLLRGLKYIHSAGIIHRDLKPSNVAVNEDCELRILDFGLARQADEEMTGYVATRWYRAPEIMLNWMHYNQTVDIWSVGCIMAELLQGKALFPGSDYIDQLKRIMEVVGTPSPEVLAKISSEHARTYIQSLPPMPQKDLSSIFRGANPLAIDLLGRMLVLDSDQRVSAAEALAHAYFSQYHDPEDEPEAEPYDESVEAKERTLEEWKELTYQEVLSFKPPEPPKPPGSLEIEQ
Chain of Misshapen-like kinase 1 (Homo sapiens) (Q8N4C8 whole entry, looked up): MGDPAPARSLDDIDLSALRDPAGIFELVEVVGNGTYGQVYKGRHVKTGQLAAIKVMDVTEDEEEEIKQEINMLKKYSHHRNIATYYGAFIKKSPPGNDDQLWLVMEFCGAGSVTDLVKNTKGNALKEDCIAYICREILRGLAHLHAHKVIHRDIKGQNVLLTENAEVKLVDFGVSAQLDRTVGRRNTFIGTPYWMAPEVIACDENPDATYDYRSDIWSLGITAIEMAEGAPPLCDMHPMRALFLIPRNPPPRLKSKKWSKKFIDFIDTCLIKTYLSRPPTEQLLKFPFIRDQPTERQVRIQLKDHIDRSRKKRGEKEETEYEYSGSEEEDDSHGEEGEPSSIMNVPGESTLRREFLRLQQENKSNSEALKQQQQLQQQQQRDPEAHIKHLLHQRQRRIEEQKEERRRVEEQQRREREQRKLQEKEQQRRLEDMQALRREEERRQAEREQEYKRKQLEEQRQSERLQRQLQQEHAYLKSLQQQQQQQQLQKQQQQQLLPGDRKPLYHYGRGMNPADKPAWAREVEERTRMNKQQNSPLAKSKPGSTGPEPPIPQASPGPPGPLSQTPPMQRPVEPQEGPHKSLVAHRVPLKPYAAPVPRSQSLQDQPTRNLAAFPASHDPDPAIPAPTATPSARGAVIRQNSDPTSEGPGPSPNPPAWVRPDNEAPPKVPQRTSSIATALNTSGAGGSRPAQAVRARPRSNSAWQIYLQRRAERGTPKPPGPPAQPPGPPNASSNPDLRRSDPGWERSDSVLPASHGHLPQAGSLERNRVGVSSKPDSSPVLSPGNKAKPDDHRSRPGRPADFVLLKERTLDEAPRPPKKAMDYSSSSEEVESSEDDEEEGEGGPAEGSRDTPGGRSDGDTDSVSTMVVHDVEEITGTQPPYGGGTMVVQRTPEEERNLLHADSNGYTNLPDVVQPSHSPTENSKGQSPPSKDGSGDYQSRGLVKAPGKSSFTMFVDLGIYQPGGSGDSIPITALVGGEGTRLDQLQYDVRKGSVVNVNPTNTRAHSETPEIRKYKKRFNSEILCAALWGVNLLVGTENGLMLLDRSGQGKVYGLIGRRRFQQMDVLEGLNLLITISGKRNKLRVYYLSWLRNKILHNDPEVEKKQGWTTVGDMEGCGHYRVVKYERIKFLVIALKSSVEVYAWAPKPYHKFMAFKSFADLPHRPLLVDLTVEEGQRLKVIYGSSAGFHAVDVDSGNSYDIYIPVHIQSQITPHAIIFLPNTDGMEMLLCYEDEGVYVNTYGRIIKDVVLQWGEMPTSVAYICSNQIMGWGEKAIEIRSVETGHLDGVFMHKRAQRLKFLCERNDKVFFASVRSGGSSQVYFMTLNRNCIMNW
Chain of Cyclin-dependent kinase 4 (Homo sapiens) (P11802 whole entry): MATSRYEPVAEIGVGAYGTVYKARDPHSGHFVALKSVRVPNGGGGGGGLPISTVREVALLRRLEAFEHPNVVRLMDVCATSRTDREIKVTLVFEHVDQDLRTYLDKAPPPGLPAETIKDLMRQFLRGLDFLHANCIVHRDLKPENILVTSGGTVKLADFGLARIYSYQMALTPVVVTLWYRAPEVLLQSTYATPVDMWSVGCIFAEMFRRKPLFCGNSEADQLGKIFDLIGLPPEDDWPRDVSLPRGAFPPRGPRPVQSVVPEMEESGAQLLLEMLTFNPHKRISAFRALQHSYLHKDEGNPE
Chain of Sodium-dependent dopamine transporter (Homo sapiens) (Q01959 whole entry): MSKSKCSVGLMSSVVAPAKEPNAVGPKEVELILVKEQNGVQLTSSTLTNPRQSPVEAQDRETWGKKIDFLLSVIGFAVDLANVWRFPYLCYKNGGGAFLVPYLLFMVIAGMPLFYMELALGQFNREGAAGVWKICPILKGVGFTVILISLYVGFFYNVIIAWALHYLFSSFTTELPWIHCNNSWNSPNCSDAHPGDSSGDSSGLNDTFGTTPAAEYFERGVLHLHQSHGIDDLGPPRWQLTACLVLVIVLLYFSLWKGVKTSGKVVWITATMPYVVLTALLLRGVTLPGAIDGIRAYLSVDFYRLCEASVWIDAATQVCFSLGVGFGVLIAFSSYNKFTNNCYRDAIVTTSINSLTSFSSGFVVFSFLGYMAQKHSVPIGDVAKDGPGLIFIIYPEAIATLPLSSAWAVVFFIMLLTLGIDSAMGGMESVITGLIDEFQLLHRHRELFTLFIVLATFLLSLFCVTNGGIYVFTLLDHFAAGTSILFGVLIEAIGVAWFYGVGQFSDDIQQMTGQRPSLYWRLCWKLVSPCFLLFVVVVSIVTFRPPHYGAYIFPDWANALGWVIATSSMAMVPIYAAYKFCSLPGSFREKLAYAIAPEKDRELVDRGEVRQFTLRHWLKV
Chain of Calcium/calmodulin-dependent protein kinase kinase 1 (Homo sapiens) (Q8N5S9 whole entry, looked up): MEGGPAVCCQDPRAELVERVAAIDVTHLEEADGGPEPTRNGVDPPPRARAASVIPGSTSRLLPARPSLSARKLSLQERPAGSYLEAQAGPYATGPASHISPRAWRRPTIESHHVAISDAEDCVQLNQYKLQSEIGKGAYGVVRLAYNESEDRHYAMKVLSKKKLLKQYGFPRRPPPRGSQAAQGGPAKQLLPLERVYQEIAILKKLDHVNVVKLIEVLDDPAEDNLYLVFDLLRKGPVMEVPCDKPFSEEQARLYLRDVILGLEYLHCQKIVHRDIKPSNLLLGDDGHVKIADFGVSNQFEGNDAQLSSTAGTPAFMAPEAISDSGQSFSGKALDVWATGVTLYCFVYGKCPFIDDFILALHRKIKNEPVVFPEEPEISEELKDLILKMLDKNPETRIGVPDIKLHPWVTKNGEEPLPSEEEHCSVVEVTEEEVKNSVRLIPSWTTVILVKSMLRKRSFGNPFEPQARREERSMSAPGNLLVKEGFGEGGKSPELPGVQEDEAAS
Chain of Serine/threonine-protein kinase PknB (Mycobacterium tuberculosis) (P9WI81 whole entry): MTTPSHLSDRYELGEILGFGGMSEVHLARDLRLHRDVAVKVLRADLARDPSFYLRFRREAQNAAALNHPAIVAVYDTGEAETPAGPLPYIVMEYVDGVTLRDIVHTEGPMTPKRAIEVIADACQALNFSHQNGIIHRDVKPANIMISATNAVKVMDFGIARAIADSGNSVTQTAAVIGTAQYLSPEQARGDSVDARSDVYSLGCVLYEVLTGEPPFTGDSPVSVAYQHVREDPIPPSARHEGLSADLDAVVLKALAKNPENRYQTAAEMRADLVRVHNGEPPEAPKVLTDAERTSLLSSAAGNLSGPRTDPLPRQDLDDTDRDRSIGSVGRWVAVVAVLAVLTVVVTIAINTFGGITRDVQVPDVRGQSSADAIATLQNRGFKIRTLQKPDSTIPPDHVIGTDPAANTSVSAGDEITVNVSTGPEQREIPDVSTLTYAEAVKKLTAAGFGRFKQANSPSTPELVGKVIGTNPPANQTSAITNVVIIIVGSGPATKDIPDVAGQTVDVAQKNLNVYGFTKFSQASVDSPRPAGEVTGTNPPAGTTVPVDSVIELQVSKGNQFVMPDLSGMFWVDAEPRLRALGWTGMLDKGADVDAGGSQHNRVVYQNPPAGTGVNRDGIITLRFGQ

With `CC(=O)C1=C(C)N(c2cccc(C(F)(F)F)c2)C(=O)N[C@@H]1c1ccc(C#N)nc1` [BAY-678] the Ki (Histamine H3 receptor; read-out: Ki) was 3070 nM, the Ki (Histamine H3 receptor; read-out: pKi (converted)) was 2820 nM and the residual activity [1] was 100%. For the same molecule, the residual activity [2] was 85.7%, the residual activity [3] was 94.8% and the residual activity [4] was 100%. The residual activity [5] was 92.4%, the residual activity [6] was 100% and the residual activity [7] was 100%. The residual activity [8] was 100%, the residual activity [9] was 80.9% and the residual activity [10] was 100%. For the same molecule, the residual activity [11] was 71.5%, the residual activity [12] was 100% and the residual activity [13] was 67.2%. It also gave a residual activity [14] of 100%, a residual activity [15] of 100% and a residual activity [16] of 100%. The residual activity [17] was 96.9%, the residual activity [18] was 83.5% and the residual activity [19] was 100%. The residual activity [20] was 100%, the residual activity [21] was 100% and the residual activity [22] was 93.1%. For the same molecule, the residual activity [23] was 100%, the residual activity [24] was 100% and the residual activity [25] was 78.2%. For the same molecule, the residual activity [26] was 52.8%, the residual activity [27] was 92.3% and the residual activity [28] was 82.7%. It also gave a residual activity [29] of 100%, a residual activity [30] of 98% and a residual activity [31] of 100%. For the same molecule, the residual activity [32] was 100%, the residual activity [33] was 99.2% and the residual activity [34] was 100%. It also gave a residual activity [35] of 100%, a residual activity [36] of 100% and a residual activity [37] of 94.4%. It also gave a residual activity [38] of 100%, a residual activity [39] of 100% and an inhibition [40] of -0.342%. For the same molecule, the inhibition [41] was 25.9%, the inhibition [42] was 9.75% and the inhibition [43] was 35.9%.
